The text below walks through data of patent US20250179061A1 (SIRONAX LTD., priority 2022, published 2025).

Where two headings read alike, the source gives them in different places.

The subject of the experiment is HT-29 cells. As to the kind of experiment: HT-29 necroptosis cell viability assay (TNF-α/SMAC mimetic/zVAD-FMK, CellTiter-Glo). It is filed as cell-based. Conditions: Homo sapiens, read-out: Activity. The procedure, abridged: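 Necroptosis was triggered by TNF-α (10 ng/ml), SMAC mimetic (6 μM) and zVAD-FMK (10 μM) in serum-free medium during 20 h compound exposure (10 concentrations, threefold steps) of HT-29 cells. IC50 from duplicate dose-responses uses CellTiter-Glo ATP luminescence as viability read-out.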
(In ATP-based viability assays light output follows the ATP content of the culture.)

Setting [1] is: HT-29, HT-29 necroptosis cell viability assay, class symbols for IC50.
Setting [2] is: HT-29, HT-29 necroptosis cell viability, IC50 class symbols.
[3] abbreviates: HT-29 cells stimulated with TNF-α (10 ng/ml), SMAC mimetic (6 μM) and zVAD-FMK (10 μM), 20 hours, CellTiter-Glo ATP luminescence, geometric mean IC50 from 10 points.

For the compound `CNC(=O)c1nc(C)c(Oc2ccc(-n3ncn(Cc4ccccc4F)c3=O)cc2F)s1` [Example 595, 5-(2-fluoro-4-(4-(2-fluorobenzyl)-5-oxo-4,5-dihydro-1H-1,2,4-triazol-1-yl)phenoxy)-N,4-dimethylthiazole-2-carboxamide], the IC50 under setting [1] was below 100 nM.
On to `CCOC1CN(c2cc(Oc3ccc(-n4nc5n(c4=O)C(c4ccccc4)CC5)cc3)ccn2)C1` (stereo not shown) [Example 301, 2-[4-[[2-(3-ethoxyazetidin-1-yl)-4-pyridyl]oxy]phenyl]-5-phenyl-6,7-dihydro-5H-pyrrolo[2,1-c][1,2,4]triazol-3-one], for which the IC50 under setting [2] was below 100 nM.
The same measure, in the same setting: to `C[C@@H](Nc1cc(Oc2ccc(-n3ncn(Cc4c(F)cccc4F)c3=O)cc2)ccn1)C1CCC1` [Example 348, (R)-2-(4-((2-((1-cyclobutylethyl)amino)pyridin-4-yl)oxy)phenyl)-4-(2,6-difluorobenzyl)-2,4-dihydro-3H-1,2,4-triazol-3-one] belongs 100 to 1000 nM.
Consider `Cc1cn(Cc2ccc(-n3nc4n(c3=O)C(c3ccccc3)CC4)cc2F)c(C)n1` (stereo not shown) [Example 213, 2-(4-((2,4-dimethyl-1H-imidazol-1-yl)methyl)-3-fluorophenyl)-5-phenyl-2,5,6,7-tetrahydro-3H-pyrrolo[2,1-c][1,2,4]triazol-3-one], for which the IC50 under setting [1] was below 100 nM.
For `N#Cc1ncc(Oc2ccc(-n3ncn(Cc4c(F)cccc4F)c3=O)cc2)s1` [Example 79, 5-(4-(4-(2,6-difluorobenzyl)-5-oxo-4,5-dihydro-1H-1,2,4-triazol-1-yl)phenoxy)thiazole-2-carbonitrile], the IC50 under setting [3] is below 100 nM.
For the compound `Cc1nc(CC#N)sc1Oc1ccc(-n2ncn(Cc3c(F)cccc3F)c2=O)cc1Cl` [Example 139, 2-(5-(2-chloro-4-(4-(2,6-difluorobenzyl)-5-oxo-4,5-dihydro-1H-1,2,4-triazol-1-yl)phenoxy)-4-methylthiazol-2-yl)acetonitrile], under setting [1], the IC50 was below 100 nM.
As to `Cc1nc(C)c(Oc2ccc(-n3ncn(Cc4c(F)cccc4F)c3=O)cc2)s1` [Example 97, 4-(2,6-difluorobenzyl)-2-(4-((2,4-dimethylthiazol-5-yl)oxy)phenyl)-2,4-dihydro-3H-1,2,4-triazol-3-one], the IC50 under setting [3] is below 100 nM.
Consider `CCOC1CN(c2cc(Oc3ccc(-n4ncn(Cc5c(F)cccc5F)c4=O)cc3)c(Cl)cn2)C1` [Example 326, 2-(4-((5-chloro-2-(3-ethoxyazetidin-1-yl)pyridin-4-yl)oxy)phenyl)-4-(2,6-difluorobenzyl)-2,4-dihydro-3H-1,2,4-triazol-3-one], for which, under setting [2], the IC50 was below 100 nM.
In the case of `Cn1nccc1Cc1ccc(-n2ncn(Cc3c(F)cccc3F)c2=O)cc1` [Example 545, 4-(2,6-difluorobenzyl)-2-(4-((1-methyl-1H-pyrazol-5-yl)methyl)phenyl)-2,4-dihydro-3H-1,2,4-triazol-3-one], the IC50 under setting [1] is below 100 nM.
Regarding `CC(C)(C)OC(=O)NC1CN(c2cc(Oc3ccc(-n4ncn(Cc5c(F)cccc5F)c4=O)cc3)ccn2)C1` [Example 327, tert-butyl (1-(4-(4-(4-(2,6-difluorobenzyl)-5-oxo-4,5-dihydro-1H-1,2,4-triazol-1-yl)phenoxy)pyridin-2-yl)azetidin-3-yl)carbamate], the IC50 under setting [2] is below 100 nM.
As to `Cn1nc(CC#N)cc1Oc1ccc(-n2ncn(Cc3c(F)cccc3F)c2=O)cc1F` [Example 140, 2-(5-(4-(4-(2,6-difluorobenzyl)-5-oxo-4,5-dihydro-1H-1,2,4-triazol-1-yl)-2-fluorophenoxy)-1-methyl-1H-pyrazol-3-yl)acetonitrile], under setting [1], the IC50 was below 100 nM.
As to `Cc1nc(N2CC3(CCO3)C2)sc1Oc1ccc(-n2ncn(Cc3c(F)cccc3F)c2=O)cc1` [Example 457, 4-(2,6-difluorobenzyl)-2-(4-((4-methyl-2-(1-oxa-6-azaspiro[3.3]heptan-6-yl)thiazol-5-yl)oxy)phenyl)-2,4-dihydro-3H-1,2,4-triazol-3-one], the IC50 under setting [2] is below 100 nM.
In the case of `CN(CC1CCCCO1)c1cc(Oc2ccc(-n3ncn(Cc4c(F)cccc4F)c3=O)cc2)ccn1` (stereo not shown) [Example 408, 4-(2,6-difluorobenzyl)-2-(4-((2-(methyl((tetrahydro-2H-pyran-2-yl)methyl)amino)pyridin-4-yl)oxy)phenyl)-2,4-dihydro-3H-1,2,4-triazol-3-one], the IC50 under setting [2] was below 100 nM.
Consider `CCOC1(C)CN(c2nccc(Oc3ccc(-n4ncn(Cc5c(F)cccc5Cl)c4=O)cc3)c2F)C1` [Example 488, 4-(2-chloro-6-fluorobenzyl)-2-(4-((2-(3-ethoxy-3-methylazetidin-1-yl)-3-fluoropyridin-4-yl)oxy)phenyl)-2,4-dihydro-3H-1,2,4-triazol-3-one], for which, under setting [1], the IC50 is below 100 nM.
Regarding `Cc1nc(C(N)=O)sc1Oc1ccc(-n2ncn(Cc3cc(F)ccc3F)c2=O)cc1F` [Example 564, 5-(4-(4-(2,5-difluorobenzyl)-5-oxo-4,5-dihydro-1H-1,2,4-triazol-1-yl)-2-fluorophenoxy)-4-methylthiazole-2-carboxamide], under setting [1], the IC50 was below 100 nM.
As for `Cc1nc(N2CCC(C#N)C2)sc1Oc1ccc(-n2ncn(Cc3c(F)cccc3F)c2=O)cc1` (stereo not shown) [Example 54, 1-(5-(4-(4-(2,6-difluorobenzyl)-5-oxo-4,5-dihydro-1H-1,2,4-triazol-1-yl)phenoxy)-4-methylthiazol-2-yl)pyrrolidine-3-carbonitrile], the IC50 under setting [3] was below 100 nM.
For `Cc1nc(C(F)(F)C(=O)O)sc1Oc1ccc(-n2ncn(Cc3c(F)cccc3F)c2=O)cc1F` [Example 170, 2-(5-(4-(4-(2,6-difluorobenzyl)-5-oxo-4,5-dihydro-1H-1,2,4-triazol-1-yl)-2-fluorophenoxy)-4-methylthiazol-2-yl)-2,2-difluoroacetic acid], the IC50 under setting [1] was 100 to 1000 nM.
Take `N#CC12CC(Nc3nccc(Oc4ccc(-n5ncn(Cc6c(F)cccc6F)c5=O)cc4Cl)c3F)(C1)C2` [Example 391, 3-((4-(2-chloro-4-(4-(2,6-difluorobenzyl)-5-oxo-4,5-dihydro-1H-1,2,4-triazol-1-yl)phenoxy)-3-fluoropyridin-2-yl)amino)bicyclo[1.1.1]pentane-1-carbonitrile]: the IC50 under setting [2] lay in the range of 100 to 1000 nM.
On the same count and under the same terms, next, `O=c1n(Cc2c(F)cccc2F)cnn1-c1ccc(Oc2ccnc(N3CC4(CCNCC4)C3)c2)cc1` [Example 380, 2-[4-[[2-(2,7-diazaspiro[3.5]nonan-2-yl)-4-pyridyl]oxy]phenyl]-4-[(2,6-difluorophenyl)methyl]-1,2,4-triazol-3-one]: 100 to 1000 nM.
`CCOC(=O)c1c(C)cn(Cc2ccc(-n3ncn(Cc4c(F)cccc4F)c3=O)cc2F)c1C` [Example 208, 1-(4-(4-(2,6-difluorobenzyl)-5-oxo-4,5-dihydro-1H-1,2,4-triazol-1-yl)-2-fluorobenzyl)-2,4-dimethyl-1H-pyrrole-3-carboxylate]: the IC50 under setting [1] is below 100 nM.
As for `Cc1nc(N2C[C@H](O)[C@@H]2C)sc1Cc1ccc(-n2ncn(Cc3c(F)cccc3F)c2=O)cc1` [Example 64, 4-(2,6-difluorobenzyl)-2-(4-((2-((2S,3S)-3-hydroxy-2-methylazetidin-1-yl)-4-methylthiazol-5-yl)methyl)phenyl)-2,4-dihydro-3H-1,2,4-triazol-3-one], the IC50 under setting [3] is below 100 nM.
For `NC(=O)c1coc(Oc2ccc(-n3nc4n(c3=O)[C@H](c3ccccc3)CC4)cc2F)n1` (single isomer, unassigned) [Example 688], under setting [3], the IC50 lay within 100 to 1000 nM.
